Consider 3 molecules from US20080207719A1, “Treatment of Epilepsy” (ORION CORPORATION, priority 2003, published 2008).

Several values for one entry are separate records, joined by “and”; a condition that tells them apart may be missing. Equal values may be shown once.

Data set [1] has as its system Male Harlan Sprague-Dawley rats. Description: Development of epilepsy after status epilepticus (SE) induced by electrical stimulation of the amygdala; chronic treatment started 1 wk after SE. It is filed as in vivo. As to conditions: for Number of animals with severe (>1 seizure/day) epilepsy, during treatment / Number of animals with mild (≦1 seizure/day) epilepsy, during treatment / Number of animals with mild (≦1 seizure/day) epilepsy, All / Number of animals with severe (>1 seizure/day) epilepsy, All / Number of animals with mild (≦1 seizure/day) epilepsy, after treatment / Number of animals with severe (>1 seizure/day) epilepsy, after treatment: rats after SE; for Number of animals with severe (>1 seizure/day) epilepsy, during treatment / Number of animals with mild (≦1 seizure/day) epilepsy, during treatment: atipamezole 100 μg/kg/h s.c. minipump for 9 wk starting 1 wk after SE, DZP 20 mg/kg i.p. at 3 h after beginning of SE; for Number of animals with severe (>1 seizure/day) epilepsy, during treatment: animals/epileptic animals; for Number of animals with mild (≦1 seizure/day) epilepsy, All / Number of animals with severe (>1 seizure/day) epilepsy, All: both follow-ups (All); for Number of animals with mild (≦1 seizure/day) epilepsy, after treatment / Number of animals with severe (>1 seizure/day) epilepsy, after treatment: follow-up after the 9 wk treatment. The procedure:
To mimic the clinical environment, α2-adrenoceptor antagonist treatment with atipamezole was started 1 wk after induction of status epilepticus (SE) with subcutaneous Alzet minipumps and continued for 9 wk. Two independent studies were carried out.
Male Harlan Sprague-Dawley rats (300-350 g; Netherlands) were used in this study. After implantation of electrodes, rats were housed in individual cages at a temperature of 19-21° C., with humidity at 50-60% and lights on 7.00-19.00. Standard food pellets and water were freely available.
The animals were anaesthetized with an intraperitoneal injection of sodium pentobarbital (60 mg/kg) and chloral hydrate (60 mg/kg) and inserted into a stereotaxic frame (lambda and bregma at the same horizontal level). A pair of stimulating electrodes (0.5 mm tip separation) was implanted into the lateral nucleus of the left amygdala (3.6 mm posterior, 5.0 mm lateral, and 6.5 mm ventral to bregma). One stainless steel screw was inserted into the skull above the right frontal cortex and served as cortical electrode (3 mm anterior to the bregma, 2 mm lateral to midline). Two stainless steel screws were inserted into the skull bilaterally over the cerebellum, which served as indifferent and ground electrodes. The electrodes were fixed with dental acrylate. The rats were allowed to recover from surgical operation for 14 d, after which electrical stimulation was initiated.
After discharge threshold was assessed by stimulating the amygdala with a one-second train of one-msec bipolar square-wave pulses (60 Hz, 50-400 μA peak to peak). Only those rats in which after discharges could be induced at 400 μA or at lower current level were included in the study.
To induce SE, the amygdala was stimulated repeatedly at 500 msec intervals with a train of pulses lasting 100 msec (1 msec 60 Hz bipolar pulses at 400 μA peak to peak). […] Once the criterion of SE was achieved, no further stimulation was given. After 3 h, SE was terminated by injecting diazepam 20 mg/kg (i.p.).
Vehicle (0.9% saline, Natrosteril 9 mg/ml, Baxter, Vantaa, Finland) was administered via subcutaneous Alzet minipumps with a pumping rate of 9.15 μl/h in 1-wk and 2.61 μl/h in 8-wk pumps starting 1 wk after stimulation. Minipumps were implanted subcutaneously to the back between the scapulae according to the instructions provided by manufacturer. For implantation, animals were anesthetized with an intraperitoneal injection of sodium pentobarbital (60 mg/kg) and chloral hydrate (60 mg/kg).
Diazepam was administered at 3 h after the beginning of SE (20 mg/kg, i.p.). Atipamezole treatment was started 1 wk after SE. Compound was administered with subcutaneous Alzet osmotic minipumps and continued for 9 wk. Atipamezole was dissolved into sterile 0.9% NaCl. The concentration of atipamezole was adjusted according to the weight of the rat and pumping rate to obtain a constant flow-rate of 100 μg/kg/h.
• DZP (diazepam)+vehicle (n=11): Rats with SE treated with DZP (20 mg/kg, i.p.) at 3 h after the beginning of SE. Chronic treatment with vehicle (0.9% NaCl, subcutaneous Alzet minipumps) for 9 wk starting 1 wk after SE. • DZP+atipamezole (n=7): Rats with SE treated with DZP (20 mg/kg, i.p.) at 3 h after the beginning of SE. Chronic treatment with atipamezole (100 μg/kg/h, subcutaneous Alzet minipumps) for 9 wk starting 1 wk after SE.
Controls (n=9): Operated, non-stimulated and non-treated controls.
Ø+vehicle (n=11): No treatment at 3 h after the beginning of SE. Chronic treatment with vehicle (0.9% NaCl in subcutaneous Alzet minipump) for 9 wk starting 1 wk after SE.
DZP+vehicle (n=10): Diazepam treatment (20 mg/kg, i.p.) at 3 h after the beginning of SE. Chronic treatment with vehicle (0.9% NaCl in subcutaneous Alzet minipump) for 9 wk starting 1 wk after SE.
Ø+atipamezole (n=10). No treatment at 3 h after the beginning of SE. Chronic treatment with atipamezole (100 μg/kg/h, subcutaneous Alzet minipumps) for 9 wk starting 1 wk after SE.
DZP+atipamezole (n=12). […]

In data set [2] the test system is kainate-induced seizures. As to conditions: acute administration; Halonen T. et al., Brain Res 1995; cited from earlier work.
The test system of data set [3] is alpha2-adrenoceptor. As to conditions: background statement, no species differences (human and rodent); cited from earlier work.
The subject of data set [4] is cortical excitability. As to conditions: oral administration, humans; Plewnia C et al., Neurosci Lett 2001; cited from earlier work.
The mark [5] stands for this setting: listed as Ø + atipamezole, hydrochloride.
[6] abbreviates: listed as Ø/DZP + atipamezole, hydrochloride.

Turning to `CCC1(c2c[nH]cn2)Cc2ccccc2C1.Cl` [atipamezole, 4-(2-ethyl-2,3-dihydro-1H-inden-2-yl)-1H-imidazole hydrochloride], in data set [1] (setting [5]), the “Number of animals with severe (>1 seizure/day) epilepsy, during treatment” value is recorded as 1/8; the “Number of animals with mild (≦1 seizure/day) epilepsy, during treatment” value is listed as 7/8; the “Number of animals with mild (≦1 seizure/day) epilepsy, All” value (“Number … (≦1 seizure/day) epilepsy, All” below) was 7/8; the “Number of animals with severe (>1 seizure/day) epilepsy, All” value (“Number … (>1 seizure/day) epilepsy, All” for short) is reported as 1/8. Further, in data set [1] (setting [5]), the “Number of animals with mild (≦1 seizure/day) epilepsy, after treatment” value is listed as 6/7 and the “Number of animals with severe (>1 seizure/day) epilepsy, after treatment” value is reported as 1/7. In data set [1] (setting [6]), the “Number of animals with severe (>1 seizure/day) epilepsy, during treatment” value is recorded as 1/20; the “Number of animals with mild (≦1 seizure/day) epilepsy, during treatment” value is reported as 19/20; the “Number … (≦1 seizure/day) epilepsy, All” value is on record as 21/22; the “Number … (>1 seizure/day) epilepsy, All” value is reported as 1/22. Moreover, in data set [1] (setting [6]), the “Number of animals with mild (≦1 seizure/day) epilepsy, after treatment” value is reported as 19/20 and the “Number of animals with severe (>1 seizure/day) epilepsy, after treatment” value is 1/20. In addition, in data set [1] (summary statement, epilepsy that develops is milder and can be non-progressive), the Effect on epileptogenesis entry is reported as “clear disease-modifying effect on epileptogenesis”. Further, the “Effect on kainate-induced seizures” value in data set [2] is “proconvulsant effect”. Further, in data set [3], the alpha2/alpha1-selectivity ratio entry is given as “high”.

On to `COC(=O)[C@@H]1[C@H]2C[C@H]3c4[nH]c5ccccc5c4CCN3C[C@@H]2CC[C@@H]1O` [yohimbine], for which, in data set [4], the “Cortical excitability induced by transcranial magnetic stimulation” value is “increased cortical excitability”.

On to `CN1C(=O)CN=C(c2ccccc2)c2cc(Cl)ccc21` [DZP + vehicle], for which the “Rats with >1 seizure/day” value in data set [1] (data combined from the two studies) amounted to 50%. Further, in data set [1], the “Number of animals with mild (≦1 seizure/day) epilepsy, during treatment” value was 1/4 and 6/10; the “Number of animals with severe (>1 seizure/day) epilepsy, during treatment” value was 3/4 and 4/10; the “Number … (≦1 seizure/day) epilepsy, All” value is 2/4 and 5/10; the “Number … (>1 seizure/day) epilepsy, All” value was 2/4 and 5/10. Besides, in data set [1], the “Number of animals with mild (≦1 seizure/day) epilepsy, after treatment” value was 1/3 and 5/9; the “Number of animals with severe (>1 seizure/day) epilepsy, after treatment” value was 2/3 and 4/9.
